Data from PubChem BioAssay (NCI).
Several values for one entry are separate records, joined by “and”; a condition that tells them apart may be missing. Equal values may be shown once.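 Growth conditions: 96-well plates. Treatment: test compound, 48 hours, 5 concentrations. Analysis: linear interpolation between bracketing concentrations; unreached endpoints set to highest concentration. GI50 marks 50% less growth. Definition used: TGI = concentration required for complete inhibition of growth.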

Legend:
Experiment in all cases: inhibition of tumour cell growth, NCI panel, 48 h
[1] = test system: A549 NSCLC
[2] = test system: COLO 205 colon
[3] = test system: MALME-3M melanoma
[4] = test system: MDA-MB-231 breast
[5] = test system: RPMI-8226 leukemia
[6] = test system: RXF 393 renal
[7] = test system: SNB-75 CNS
[8] = test system: SR leukemia
[9] = test system: T-47D breast
[10] = test system: OVCAR-4 ovarian

Structure (SMILES): Oc1cccnc1[Se]
- TGI [1]: > 100 µM
- TGI [2]: 35 µM
- TGI [3]: > 100 µM
- TGI [4]: > 100 µM
- TGI [5]: > 100 µM
- TGI [6]: > 100 µM
- TGI [7]: > 100 µM
- TGI [8]: > 100 µM
- TGI [9]: > 100 µM

Structure (SMILES): CCn1c2ccccc2c2cc(NC(=O)Nc3ccc([N+](=O)[O-])cc3C)ccc21
- GI50 [1]: 3.01 µM
- TGI [1]: 15.6 µM
- GI50 [2]: 2.82 µM
- TGI [2]: 10.3 µM
- GI50 [3]: 2.28 µM
- TGI [3]: 13 µM
- GI50 [4]: 3.66 µM
- TGI [4]: 24.6 µM
- GI50 [10]: 5.48 µM
- TGI [10]: 85 µM
- GI50 [5]: 1.4 µM
- TGI [5]: 4.01 µM
- GI50 [6]: 1.36 µM
- TGI [6]: 6.27 µM
- GI50 [7]: 3.05 µM
- TGI [7]: 17.6 µM
- GI50 [9]: 2.34 µM
- TGI [9]: 9.54 µM

Structure (SMILES): O=C(CSc1nc2ccccc2nc1-c1ccccc1)Nc1ccc(F)cc1
- GI50 [1]: 49.3 µM
- TGI [1]: > 100 µM
- GI50 [2]: 83.3 µM
- TGI [2]: > 100 µM
- GI50 [3]: 17.1 µM
- TGI [3]: 54 µM
- GI50 [4]: 34.3 µM
- TGI [4]: > 100 µM
- GI50 [10]: 1.96 µM
- TGI [10]: 15.7 µM
- GI50 [5]: 58.5 µM
- TGI [5]: > 100 µM
- GI50 [6]: 18.6 µM
- TGI [6]: 68.5 µM
- GI50 [7]: 21.6 µM
- TGI [7]: 80.8 µM
- GI50 [9]: 19.2 µM
- TGI [9]: 99.4 µM

Structure (SMILES): COc1cc(-c2cc(-c3cc4c([nH]c5ccccc54)c(-c4cc(OC)c(OC)c(OC)c4)n3)cc(-c3ccccc3)n2)cc(OC)c1OC
- GI50 [1]: 3.4 µM
- TGI [1]: 80.9 µM
- GI50 [2]: 4.11 µM
- TGI [2]: 21.9 µM
- GI50 [3]: 6.3 µM
- TGI [3]: 70.9 µM
- GI50 [4]: 3.59 µM
- TGI [4]: > 100 µM
- GI50 [10]: 5.31 µM
- TGI [10]: 74.2 µM
- GI50 [5]: 2.88 µM
- TGI [5]: 18.5 µM
- GI50 [6]: 2.7 µM
- TGI [6]: 12.2 µM
- GI50 [8]: 3.56 µM
- TGI [8]: > 100 µM
- GI50 [9]: 2.8 µM
- TGI [9]: 35.4 µM

Structure (SMILES): COc1ccc(Nc2nnc(-c3cc(O)ccc3O)s2)cc1
- GI50 [1]: > 50 µM
- TGI [1]: > 50 µM
- GI50 [2]: > 50 µM
- TGI [2]: > 50 µM
- GI50 [4]: 9.65 µM
- TGI [4]: 31.1 µM
- GI50 [10]: 11.7 µM
- TGI [10]: > 50 µM
- GI50 [5]: 8.67 µM
- TGI [5]: 21.1 µM
- GI50 [6]: 30.6 µM
- TGI [6]: > 50 µM
- GI50 [7]: 9.45 µM
- TGI [7]: > 50 µM
- GI50 [8]: 1.41 µM
- TGI [8]: 34.2 µM

Structure (SMILES): CN(C)CC1CCCC/C1=N/OC(=O)c1ccc(Cl)cc1 (stereo unspecified)
- TGI [1]: > 100 µM
- TGI [2]: > 100 µM
- TGI [3]: > 100 µM
- TGI [10]: > 100 µM
- TGI [5]: > 100 µM
- TGI [6]: > 100 µM
- TGI [7]: > 100 µM
- TGI [8]: > 100 µM

Structure (SMILES): O=C1/C(=C/c2cccc(Cl)c2Cl)N=C(c2ccccc2)N1C1CC1
- GI50 [1]: 19.7 µM
- TGI [1]: > 50 µM
- GI50 [2]: 15.1 µM
- TGI [2]: > 50 µM
- GI50 [4]: 8.05 µM
- TGI [4]: 18.3 µM
- GI50 [5]: 3.88 µM
- TGI [5]: 14.5 µM
- GI50 [6]: 23.9 µM
- TGI [6]: > 50 µM
- GI50 [7]: 6.06 µM
- TGI [7]: 15.9 µM
- GI50 [8]: 21.5 µM
- TGI [8]: > 50 µM

Structure (SMILES): [Cl][Hg][c]1cc[c]([Hg][Cl])o1
- GI50 [1]: 21.9 µM
- TGI [1]: 53.5 µM
- GI50 [2]: 1.65 µM
- TGI [2]: 3.26 µM
- GI50 [3]: 1.68 µM
- TGI [3]: 3.37 µM
- GI50 [4]: 1.9 µM
- TGI [4]: 5.09 µM
- GI50 [10]: 1.63 µM
- TGI [10]: 4.24 µM
- GI50 [5]: 1.66 µM
- TGI [5]: 7.34 µM
- GI50 [6]: 1.41 µM
- TGI [6]: 2.92 µM
- GI50 [7]: 3.78 µM
- TGI [7]: 19.6 µM
- GI50 [9]: 1.18 µM
- TGI [9]: 3.66 µM

Structure (SMILES): O=C1Nc2ccccc2/C1=N\[O-].O=C1Nc2ccccc2/C1=N\[O-].[Cu+2]
- GI50 [1]: > 100 µM
- TGI [1]: > 100 µM
- GI50 [2]: > 100 µM
- TGI [2]: > 100 µM
- GI50 [3]: > 100 µM
- TGI [3]: > 100 µM
- GI50 [4]: > 100 µM
- TGI [4]: > 100 µM
- GI50 [10]: > 100 µM
- TGI [10]: > 100 µM
- GI50 [5]: > 100 µM
- TGI [5]: > 100 µM
- GI50 [6]: > 100 µM
- TGI [6]: > 100 µM
- GI50 [7]: > 100 µM
- TGI [7]: > 100 µM
- GI50 [9]: > 100 µM
- TGI [9]: > 100 µM

Structure (SMILES): CCN1CCC(O)(c2ccc(OC)cc2)C(C(=O)c2ccc(OC)cc2)C1 (stereo unspecified)
- TGI [1]: 37 µM
- TGI [2]: 55.1 µM
- TGI [10]: 32.4 µM
- TGI [5]: 38.9 µM
- TGI [7]: 30.6 µM
- TGI [8]: 67.1 µM

Structure (SMILES): C#C[C@]1(O)CCC2C3CCc4cc(O)ccc4C3CC[C@@]21C (stereo partly specified)
- GI50 [1]: 5.81 µM
- TGI [1]: > 100 µM
- GI50 [2]: 3.86 µM
- TGI [2]: 14 µM
- GI50 [3]: 7.08 µM
- TGI [3]: 22.4 µM
- GI50 [4]: 7.58 µM
- TGI [4]: 47.2 µM
- GI50 [10]: 6.76 µM
- TGI [10]: 33.6 µM
- GI50 [6]: 4.66 µM
- TGI [6]: 17.7 µM
- GI50 [7]: 1.93 µM
- TGI [7]: 6.76 µM
- GI50 [8]: 1.24 µM
- TGI [8]: 87.4 µM
- GI50 [9]: 6.91 µM
- TGI [9]: 24.4 µM

Structure (SMILES): Cc1ccc(NC(=O)CCc2cc(C(C)(C)C)nc(=S)[nH]2)cc1C
- TGI [1]: > 100 µM
- TGI [2]: > 100 µM
- TGI [3]: > 100 µM
- TGI [5]: > 100 µM
- TGI [6]: > 100 µM
- TGI [7]: > 100 µM
- TGI [8]: > 100 µM

Structure (SMILES): COc1cc2c3c(n(C)c(=O)c2cc1OC)-c1cc2c(cc1/C3=C\CN)OCO2
- GI50 [1]: 0.273 µM
- TGI [1]: 2.81 µM
- GI50 [2]: 0.156 µM
- GI50 [3]: 2.17 µM
- TGI [3]: > 40.4 µM
- GI50 [4]: 5.8 µM
- TGI [4]: > 35.4 µM
- GI50 [10]: 5.55 µM
- TGI [10]: > 27.2 µM
- GI50 [5]: 0.307 µM
- TGI [5]: 4.9 µM
- GI50 [6]: 3.17 µM
- TGI [6]: > 45.8 µM
- GI50 [7]: 0.154 µM
- TGI [7]: 59.7 µM
- GI50 [9]: 0.0176 µM
- TGI [9]: 0.639 µM

Structure (SMILES): CO/N=C(\COc1ccc2c(c1)oc(=O)c1cc(OC)ccc12)c1ccc(OC)cc1
- GI50 [1]: > 100 µM
- TGI [1]: > 100 µM
- GI50 [2]: > 100 µM
- TGI [2]: > 100 µM
- GI50 [3]: > 100 µM
- TGI [3]: > 100 µM
- GI50 [4]: > 100 µM
- TGI [4]: > 100 µM
- GI50 [10]: 20.5 µM
- TGI [10]: > 100 µM
- GI50 [5]: > 100 µM
- TGI [5]: > 100 µM
- GI50 [6]: > 100 µM
- TGI [6]: > 100 µM
- GI50 [9]: > 100 µM
- TGI [9]: > 100 µM

Structure (SMILES): COc1cc(NCc2ccc3nc(N)nc(N)c3c2C)cc(OC)c1OC (tested in a mixture with another compound)
- GI50 [1]: 0.000138 µM
- TGI [1]: 21.9 µM
- TGI [2]: 45.1 µM
- TGI [3]: 30 µM and 49.4 µM
- GI50 [4]: 0.0893 µM
- TGI [4]: 55.2 µM
- GI50 [10]: 0.15 µM
- TGI [10]: 99.8 µM
- TGI [6]: 27.5 µM
- TGI [7]: 52.7 µM
- TGI [8]: > 44.4 µM
- TGI [9]: 65.7 µM

Structure (SMILES): C=C(C)[C@@H]1CC[C@]2(C)[C@H](CC=C3[C@@H]4CC(C)(C)CC[C@]4(C(N)=O)CC[C@]32C)[C@@]1(C)CCC#N
- GI50 [1]: 4.1 µM
- TGI [1]: > 100 µM
- GI50 [2]: 2.6 µM
- TGI [2]: 7.36 µM
- GI50 [3]: 2.24 µM
- TGI [3]: 5.91 µM
- GI50 [4]: 3.96 µM
- TGI [4]: > 100 µM
- GI50 [10]: 2.56 µM
- TGI [10]: > 100 µM
- GI50 [5]: 1.94 µM
- TGI [5]: 5.54 µM
- GI50 [6]: 2.34 µM
- TGI [6]: 5.11 µM
- GI50 [7]: 2.33 µM
- TGI [7]: 9.71 µM
- GI50 [9]: 3.27 µM
- TGI [9]: > 100 µM
